In the test the target is T1, CRF1 (Homo sapiens, UniProt P34998).
T1 construct: endogenously expresses functional CRF1; endogenous in cells; host or cells: Y-79 human retinoblastoma cells
T1 sequence (P34998 24-415): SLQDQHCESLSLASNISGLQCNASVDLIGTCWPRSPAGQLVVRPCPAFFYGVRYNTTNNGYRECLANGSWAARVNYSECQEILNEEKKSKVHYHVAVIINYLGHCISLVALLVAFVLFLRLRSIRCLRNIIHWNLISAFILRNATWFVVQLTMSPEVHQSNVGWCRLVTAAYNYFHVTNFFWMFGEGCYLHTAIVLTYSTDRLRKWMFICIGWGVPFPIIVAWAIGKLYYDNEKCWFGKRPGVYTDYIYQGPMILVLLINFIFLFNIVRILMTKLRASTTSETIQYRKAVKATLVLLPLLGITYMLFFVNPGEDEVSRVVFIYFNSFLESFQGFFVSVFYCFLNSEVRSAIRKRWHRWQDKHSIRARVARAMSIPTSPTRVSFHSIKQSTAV
The test is described as follows: CRF1 assessment of cAMP (HTRF cAMP assay) in Y-79 cells, antagonist mode. It is filed as cell-based. The conditions noted are these: Y79 cells; for IC50: CRF1 cAMP screening, against agonist; for inhibition at 0.3 µM: 300 nM pepducin against agonist dose response, read-out: % Inhibition (± SD). From the text: HTRF (homogeneous time resolved fluorescence) is a technology developed by Cisbio Bioassays based on TR-FRET (time-resolved fluorescence resonance energy transfer). Cisbio Bioassays has developed a wide selection of HTRF-based assays compatible with whole cells, thereby enabling functional assays run under more physiological conditions. cAMP kits are based on a competitive immunoassay using cryptate-labeled anti-cAMP antibody and d2-labeled cAMP. This assay allows the measurement of increase in intracellular cAMP upon Gs-coupled receptor activation as well as decrease in forskolin stimulated increase in cAMP upon Gi-coupled receptor activation. Cells expressing CRF1 endogenously or via transfection can be used to assess compound pharmacology using cAMP assays as a means to measure the activity of adenylyl cyclase resulting from CRF1 activation or inhibition.
An example of the use of the cAMP assay can be assessing CRF activation of CRF1 in Y-79, a human retinoblastoma cell line which endogenously expresses functional CRF1. Y-79 cells were seeded into 96-well half area black plates at 30K/well in Hank's balanced salt solution with 50 mM HEPES, 0.1% BSA, 200 uM IBMX. Compounds to be tested for agonist activity were added to cells, incubated for 30 minutes at 37 degrees C. and assayed for cAMP concentration. To test for antagonist activity, compounds to be tested were added to cells, followed by the addition of agonist at an experimentally determined optimal concentration, generally the EC80. Plates were incubated for 30 minutes at 37 degrees C. and assayed for cAMP. To determine concentration of cAMP in each well, d2-labeled cAMP in Conjugate/Lysis buffer was added to wells. This addition lysed the cells and input a known concentration of labeled cAMP. This was followed by the addition of anti-cAMP antibody conjugated to cryptate. FRET occurs when cryptate-labeled antibody binds to d2-labeled cAMP. Therefore, the specific signal is inversely proportional to the concentration of cAMP in the sample. Conversion of signal to concentration of cAMP in the well was accomplished by comparing the FRET signal of sample to a standard curve generated using known concentrations of cAMP.
On the technique in general: In TR-FRET formats the signal depends on donor and acceptor labels being close together.

For orientation: IC50 means the concentration that inhibits the measured activity by half. A lower IC50 goes with greater potency in that assay. As a reminder, the inhibition is the percentage by which the read-out fell short of the control.

Where a SMILES comes first, the peptide text is derived from it. The star is where a group is joined. Palmitoyl = CCCCCCCCCCCCCCCC(=O)* Bounds are passed on as bounds.

With `CCCCCCCCCCCCCCCC(=O)N[C@@H](C)C(=O)N[C@@H](CC(=O)O)C(=O)N[C@@H](CCCNC(=N)N)C(=O)N[C@@H](CC(C)C)C(=O)N[C@@H](CCCNC(=N)N)C(=O)N[C@@H](CCCCN)C(=O)N[C@@H](Cc1c[nH]c2ccccc12)C(=O)N[C@@H](CCSC)C(=O)N[C@@H](Cc1ccccc1)C(=O)N[C@H](C(N)=O)[C@@H](C)CC` [Compound 44] (Palmitoyl-ADRLRKWMFI-NH2), the IC50 is > 10 µM and the inhibition at 0.3 µM is 42%.
For `CCCCCCCCCCCCCCCC(=O)N[C@H](C(=O)N[C@@H](CC(=O)O)C(=O)N[C@@H](CCCNC(=N)N)C(=O)N[C@@H](CC(C)C)C(=O)N[C@@H](CCCNC(=N)N)C(=O)N[C@@H](CCCCN)C(=O)N[C@@H](C)C(=O)N[C@@H](CCSC)C(=O)N[C@@H](Cc1ccccc1)C(=O)N[C@H](C(N)=O)[C@@H](C)CC)[C@@H](C)O` [Compound 50] (Palmitoyl-TDRLRKAMFI-NH2) the same measures were > 10 µM and 58%.
For `CCCCCCCCCCCCCCCC(=O)NCC(=O)N[C@@H](CO)C(=O)N[C@@H](CCCNC(=N)N)C(=O)N[C@@H](CC(C)C)C(=O)N[C@@H](CCCNC(=N)N)C(=O)N[C@@H](CCCCN)C(=O)N[C@@H](Cc1c[nH]c2ccccc12)C(=O)N[C@@H](CCSC)C(=O)N[C@@H](Cc1ccccc1)C(=O)N[C@H](C(N)=O)[C@@H](C)CC` [Compound 28] (Palmitoyl-GSRLRKWMFI-NH2) the same measures were 1 to 5 µM and 52 ± 5%.
The matching figures for `CCCCCCCCCCCCCCCC(=O)N[C@H](C(=O)N[C@@H](C)C(=O)N[C@@H](CCCNC(=N)N)C(=O)N[C@@H](CC(C)C)C(=O)N[C@@H](CCCNC(=N)N)C(=O)N[C@@H](CCCCN)C(=O)N[C@@H](Cc1c[nH]c2ccccc12)C(=O)N[C@@H](CCSC)C(=O)N[C@@H](Cc1ccccc1)C(=O)N[C@H](C(N)=O)[C@@H](C)CC)[C@@H](C)O` [Compound 45] (Palmitoyl-TARLRKWMFI-NH2): > 10 µM and 70%.
On to `CCCCCCCCCCCCCCCC(=O)N[C@@H](CCCNC(=N)N)C(=O)N[C@@H](CC(C)C)C(=O)N[C@@H](CCCNC(=N)N)C(=O)N[C@@H](CCCCN)C(=O)N[C@@H](Cc1c[nH]c2ccccc12)C(=O)N[C@@H](CCSC)C(=O)N[C@@H](Cc1ccccc1)C(=O)N[C@H](C(N)=O)[C@@H](C)CC` [Compound 30] (Palmitoyl-RLRKWMFI-NH2), for which the half-maximal inhibitory concentration (IC50) fell in the range of 1 to 5 µM and the inhibition at 0.3 µM amounted to 39 ± 7%.
The matching figures for `CCCCCCCCCCCCCCCC(=O)N[C@H](C(=O)N[C@@H](CC(=O)O)C(=O)N[C@@H](C)C(=O)N[C@@H](CC(C)C)C(=O)N[C@@H](CCCNC(=N)N)C(=O)N[C@@H](CCCCN)C(=O)N[C@@H](Cc1c[nH]c2ccccc12)C(=O)N[C@@H](CCSC)C(=O)N[C@@H](Cc1ccccc1)C(=O)N[C@H](C(N)=O)[C@@H](C)CC)[C@@H](C)O` [Compound 46] (Palmitoyl-TDALRKWMFI-NH2): > 10 µM and 58%.
The matching figures for `CCCCCCCCCCCCCCCC(=O)N[C@H](C(=O)N[C@@H](CC(=O)O)C(=O)N[C@@H](CCCNC(=N)N)C(=O)N[C@@H](C)C(=O)N[C@@H](CCCNC(=N)N)C(=O)N[C@@H](CCCCN)C(=O)N[C@@H](Cc1c[nH]c2ccccc12)C(=O)N[C@@H](CCSC)C(=O)N[C@@H](Cc1ccccc1)C(=O)N[C@H](C(N)=O)[C@@H](C)CC)[C@@H](C)O` [Compound 47] (Palmitoyl-TDRARKWMFI-NH2): 1 to 5 µM and 62%.
For `CCCCCCCCCCCCCCCC(=O)N[C@@H](CCCNC(=N)N)C(=O)N[C@@H](CC(C)C)C(=O)N[C@@H](CCCNC(=N)N)C(=O)N[C@@H](CO)C(=O)N[C@H](C(=O)N[C@@H](CCCNC(=N)N)C(=O)N[C@@H](CO)C(=O)N[C@@H](CC(C)C)C(=O)N[C@@H](CCCNC(=N)N)C(=O)N[C@@H](CC(N)=O)C(=O)N[C@H](C(=O)N[C@H](C(=O)N[C@@H](Cc1c[nH]cn1)C(=O)N[C@@H](Cc1c[nH]c2ccccc12)C(=O)N[C@@H](CC(N)=O)C(N)=O)[C@@H](C)CC)[C@@H](C)CC)[C@@H](C)CC` [Compound 5] (Palmitoyl-RLRSIRSLRNIIHWN-NH2) the same measures were 1 to 5 µM and 54 ± 13%.
As to `CCCCCCCCCCCCCCCC(=O)NCC(=O)N[C@@H](CO)C(=O)N[C@H](C(=O)N[C@@H](CC(=O)O)C(=O)N[C@@H](CCCNC(=N)N)C(=O)N[C@@H](CC(C)C)C(=O)N[C@@H](CCCNC(=N)N)C(=O)N[C@@H](CCCCN)C(=O)N[C@@H](Cc1c[nH]c2ccccc12)C(=O)N[C@@H](CCSC)C(=O)N[C@@H](Cc1ccccc1)C(=O)N[C@@H](C)C(N)=O)[C@@H](C)O` [Compound 37] (Palmitoyl-GSTDRLRKWMFA-NH2), the IC50 fell in the range of 1 to 5 µM and the inhibition at 0.3 µM was determined as 45 ± 19%.
For `CCCCCCCCCCCCCCCC(=O)N[C@@H](CO)C(=O)N[C@H](C(=O)N[C@@H](CC(=O)O)C(=O)N[C@@H](CCCNC(=N)N)C(=O)N[C@@H](CC(C)C)C(=O)N[C@@H](CCCNC(=N)N)C(=O)N[C@@H](CCCCN)C(=O)N[C@@H](Cc1c[nH]c2ccccc12)C(=O)N[C@@H](CCSC)C(=O)N[C@@H](Cc1ccccc1)C(=O)N[C@H](C(N)=O)[C@@H](C)CC)[C@@H](C)O` [Compound 33] (Palmitoyl-STDRLRKWMFI-NH2) the same measures were 1 to 5 µM and 36 ± 9%.
The matching figures for `CCCCCCCCCCCCCCCC(=O)N[C@H](C(=O)N[C@@H](CC(=O)O)C(=O)N[C@@H](CCCNC(=N)N)C(=O)N[C@@H](CC(C)C)C(=O)N[C@@H](CCCNC(=N)N)C(=O)N[C@@H](CCCCN)C(=O)N[C@@H](Cc1c[nH]c2ccccc12)C(=O)N[C@@H](C)C(=O)N[C@@H](Cc1ccccc1)C(=O)N[C@H](C(N)=O)[C@@H](C)CC)[C@@H](C)O` [Compound 51] (Palmitoyl-TDRLRKWAFI-NH2): 0.501 to 1 µM and 47 ± 7%.
Turning to `CCCCCCCCCCCCCCCC(=O)N[C@@H](CC(=O)O)C(=O)N[C@@H](CCCNC(=N)N)C(=O)N[C@@H](CC(C)C)C(=O)N[C@@H](CCCNC(=N)N)C(=O)N[C@@H](CCCCN)C(=O)N[C@@H](Cc1c[nH]c2ccccc12)C(=O)N[C@@H](CCSC)C(=O)N[C@@H](C)C(=O)N[C@H](C(N)=O)[C@@H](C)CC` [Compound 42] (Palmitoyl-DRLRKWMAI-NH2), the IC50 lay within 5 to 10 µM and the inhibition at 0.3 µM was determined as 65%.
As to `CCCCCCCCCCCCCCCC(=O)N[C@H](C(=O)N[C@@H](CC(=O)O)C(=O)N[C@@H](CCCNC(=N)N)C(=O)N[C@@H](CC(C)C)C(=O)N[C@@H](CCCNC(=N)N)C(=O)N[C@@H](CCCCN)C(=O)N[C@@H](Cc1c[nH]c2ccccc12)C(=O)N[C@@H](CCSC)C(=O)N[C@@H](Cc1ccccc1)C(=O)N[C@H](C(N)=O)[C@@H](C)CC)[C@@H](C)O` [Compound 32, Pal-TDRLRKWMFI-amide] (Palmitoyl-TDRLRKWMFI-NH2), the IC50 lay within 0.501 to 1 µM and the inhibition at 0.3 µM stood at 53 ± 9%.

Source of the values: patent publication US20110301087A1, “CRF1 RECEPTOR COMPOUNDS” (priority 2008, published 2011).
